Results as given in ChEMBL document CHEMBL4007491, “Structure-based drug design of novel ASK1 inhibitors using an integrated lead optimization strategy” (Bioorg Med Chem Lett, 2017).

Legend:
[1] = target: T1, Mitogen-activated protein kinase kinase kinase 5 (Homo sapiens, UniProt Q99683); assay: Inhibition of ASK1 (unknown origin) using biotin-MBP as substrate after 20 mins by TR-FRET assay
T1 sequence (Q99683 whole entry): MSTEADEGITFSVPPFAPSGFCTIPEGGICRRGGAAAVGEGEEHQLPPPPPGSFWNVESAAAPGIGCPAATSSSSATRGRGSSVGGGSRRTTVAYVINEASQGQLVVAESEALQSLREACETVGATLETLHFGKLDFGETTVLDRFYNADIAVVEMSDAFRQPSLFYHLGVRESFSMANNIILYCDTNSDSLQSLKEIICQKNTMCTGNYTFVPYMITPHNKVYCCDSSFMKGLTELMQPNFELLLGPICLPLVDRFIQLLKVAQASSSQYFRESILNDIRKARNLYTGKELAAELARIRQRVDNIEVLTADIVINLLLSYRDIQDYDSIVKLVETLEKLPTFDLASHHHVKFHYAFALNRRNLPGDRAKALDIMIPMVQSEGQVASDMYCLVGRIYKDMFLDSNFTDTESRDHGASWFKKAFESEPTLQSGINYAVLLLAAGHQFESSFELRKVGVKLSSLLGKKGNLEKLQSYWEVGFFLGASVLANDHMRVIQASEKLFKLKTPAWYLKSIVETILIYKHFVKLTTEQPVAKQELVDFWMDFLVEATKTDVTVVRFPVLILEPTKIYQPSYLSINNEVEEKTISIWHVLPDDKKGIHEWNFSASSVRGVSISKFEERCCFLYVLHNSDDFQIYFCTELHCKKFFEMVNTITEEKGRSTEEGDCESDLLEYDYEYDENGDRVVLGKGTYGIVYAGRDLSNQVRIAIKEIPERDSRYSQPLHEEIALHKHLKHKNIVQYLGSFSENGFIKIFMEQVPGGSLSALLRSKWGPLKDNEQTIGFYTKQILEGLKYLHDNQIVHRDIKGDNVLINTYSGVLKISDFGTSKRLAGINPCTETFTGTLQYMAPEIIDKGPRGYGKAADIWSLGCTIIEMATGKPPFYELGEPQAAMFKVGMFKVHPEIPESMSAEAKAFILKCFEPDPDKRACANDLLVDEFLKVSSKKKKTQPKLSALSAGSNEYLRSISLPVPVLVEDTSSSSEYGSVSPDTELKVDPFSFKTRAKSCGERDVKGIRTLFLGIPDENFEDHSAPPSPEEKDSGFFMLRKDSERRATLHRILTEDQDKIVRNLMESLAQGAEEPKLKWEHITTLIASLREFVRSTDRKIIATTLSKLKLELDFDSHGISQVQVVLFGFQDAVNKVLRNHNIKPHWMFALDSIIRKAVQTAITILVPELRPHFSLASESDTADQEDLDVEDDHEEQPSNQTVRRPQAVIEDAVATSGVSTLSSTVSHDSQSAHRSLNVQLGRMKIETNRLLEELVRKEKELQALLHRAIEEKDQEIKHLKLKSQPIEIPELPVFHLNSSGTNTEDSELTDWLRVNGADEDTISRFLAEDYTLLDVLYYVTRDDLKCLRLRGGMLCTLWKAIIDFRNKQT

[2] = target: T1, Mitogen-activated protein kinase kinase kinase 5; assay: Inhibition of ASK1 (unknown origin) assessed as reduction in JNK phosphorylation by cell based assay
[3] = target: T2, Mitogen-activated protein kinase kinase kinase 5 (Homo sapiens) (UniProt Q99683); assay: Inhibition of ASK1 (unknown origin) at 500 uM using biotin-MBP as substrate after 20 mins by TR-FRET assay relative to control
T2 sequence (whole entry): T1 sequence (Q99683 whole entry)

[4] = target: Epidermal growth factor receptor (Homo sapiens, UniProt P00533); assay: Inhibition of recombinant human GST-tagged EGFR cytoplasmic domain (668 to 1210 residues) expressed in baculovirus expression system
Epidermal growth factor receptor, sequence (P00533 whole entry, the tested form may be a part): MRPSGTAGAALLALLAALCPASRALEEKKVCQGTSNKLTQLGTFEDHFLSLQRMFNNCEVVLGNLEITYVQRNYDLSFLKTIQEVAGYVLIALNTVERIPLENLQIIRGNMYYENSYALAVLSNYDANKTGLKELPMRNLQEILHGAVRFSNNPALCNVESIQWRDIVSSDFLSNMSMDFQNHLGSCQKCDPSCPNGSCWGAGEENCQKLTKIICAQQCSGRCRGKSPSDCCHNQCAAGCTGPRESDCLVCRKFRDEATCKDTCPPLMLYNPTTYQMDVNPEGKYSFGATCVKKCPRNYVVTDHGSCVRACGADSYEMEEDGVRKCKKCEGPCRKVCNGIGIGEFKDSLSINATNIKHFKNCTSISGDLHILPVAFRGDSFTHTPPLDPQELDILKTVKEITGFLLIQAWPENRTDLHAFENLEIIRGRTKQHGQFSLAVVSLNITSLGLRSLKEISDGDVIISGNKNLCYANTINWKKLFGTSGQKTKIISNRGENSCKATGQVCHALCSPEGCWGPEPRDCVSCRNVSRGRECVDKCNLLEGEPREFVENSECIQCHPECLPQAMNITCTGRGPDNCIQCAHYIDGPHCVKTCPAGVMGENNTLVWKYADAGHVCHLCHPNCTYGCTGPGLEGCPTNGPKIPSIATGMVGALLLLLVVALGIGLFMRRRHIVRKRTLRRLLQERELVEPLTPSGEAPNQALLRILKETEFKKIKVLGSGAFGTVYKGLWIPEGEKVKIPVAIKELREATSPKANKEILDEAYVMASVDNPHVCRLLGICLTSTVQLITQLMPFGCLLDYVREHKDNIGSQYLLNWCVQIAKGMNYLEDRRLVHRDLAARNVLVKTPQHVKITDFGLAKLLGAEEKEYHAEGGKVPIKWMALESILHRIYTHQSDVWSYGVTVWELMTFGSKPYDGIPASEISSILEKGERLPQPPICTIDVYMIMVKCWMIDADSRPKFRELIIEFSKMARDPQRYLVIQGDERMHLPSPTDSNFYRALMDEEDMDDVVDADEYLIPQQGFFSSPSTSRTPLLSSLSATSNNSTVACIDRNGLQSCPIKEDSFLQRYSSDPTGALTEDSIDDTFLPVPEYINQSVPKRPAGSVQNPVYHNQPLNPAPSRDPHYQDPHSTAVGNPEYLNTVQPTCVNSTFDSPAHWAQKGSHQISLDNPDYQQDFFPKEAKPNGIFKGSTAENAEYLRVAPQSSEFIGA

[5] = target: Cyclin-dependent kinase 2 (Homo sapiens, UniProt P24941); assay: Inhibition of CDK2 (unknown origin)
[6] = target: Receptor tyrosine-protein kinase erbB-4 (Homo sapiens, UniProt Q15303); assay: Inhibition of recombinant human N-terminal GST-tagged ERBB4 cytoplasmic domain (708 to 993 residues) expressed in baculovirus expression system
Receptor tyrosine-protein kinase erbB-4, sequence (Q15303 whole entry, the tested form may be a part): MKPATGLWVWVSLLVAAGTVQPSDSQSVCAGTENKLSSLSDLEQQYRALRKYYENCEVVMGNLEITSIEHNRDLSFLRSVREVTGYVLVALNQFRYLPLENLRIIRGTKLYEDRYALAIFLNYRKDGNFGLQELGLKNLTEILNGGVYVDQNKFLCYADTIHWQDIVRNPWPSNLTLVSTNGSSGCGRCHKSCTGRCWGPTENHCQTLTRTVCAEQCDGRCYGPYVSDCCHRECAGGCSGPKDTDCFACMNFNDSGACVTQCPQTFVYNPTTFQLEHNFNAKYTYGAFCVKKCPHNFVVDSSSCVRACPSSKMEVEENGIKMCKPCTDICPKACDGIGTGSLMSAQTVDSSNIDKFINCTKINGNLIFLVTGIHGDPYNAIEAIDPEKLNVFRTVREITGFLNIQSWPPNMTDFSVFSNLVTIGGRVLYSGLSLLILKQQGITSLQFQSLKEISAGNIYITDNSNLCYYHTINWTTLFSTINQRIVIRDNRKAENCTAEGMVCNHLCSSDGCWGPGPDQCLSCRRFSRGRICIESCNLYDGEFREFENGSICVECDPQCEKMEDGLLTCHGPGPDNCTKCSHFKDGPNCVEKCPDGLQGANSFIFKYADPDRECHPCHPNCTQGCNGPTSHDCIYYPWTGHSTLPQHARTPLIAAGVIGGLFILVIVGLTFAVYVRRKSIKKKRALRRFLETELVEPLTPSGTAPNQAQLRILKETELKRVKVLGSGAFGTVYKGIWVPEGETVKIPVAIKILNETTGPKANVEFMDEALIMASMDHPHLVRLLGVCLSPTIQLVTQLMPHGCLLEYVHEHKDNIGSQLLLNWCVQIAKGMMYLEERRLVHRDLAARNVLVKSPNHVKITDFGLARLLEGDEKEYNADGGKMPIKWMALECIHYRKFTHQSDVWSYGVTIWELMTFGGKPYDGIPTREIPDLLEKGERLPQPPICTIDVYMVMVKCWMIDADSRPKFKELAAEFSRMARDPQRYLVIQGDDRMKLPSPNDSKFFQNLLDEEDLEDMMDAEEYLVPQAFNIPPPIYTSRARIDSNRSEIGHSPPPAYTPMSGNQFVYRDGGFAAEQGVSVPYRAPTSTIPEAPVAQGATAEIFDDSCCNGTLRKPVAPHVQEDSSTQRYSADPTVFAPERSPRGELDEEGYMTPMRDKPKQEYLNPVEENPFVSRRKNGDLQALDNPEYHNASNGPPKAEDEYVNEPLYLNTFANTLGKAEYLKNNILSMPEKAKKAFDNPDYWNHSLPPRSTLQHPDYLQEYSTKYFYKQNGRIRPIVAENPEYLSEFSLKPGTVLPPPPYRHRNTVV

[7] = target: T3, Tyrosine-protein kinase ITK/TSK (Homo sapiens, UniProt Q08881); assay: Inhibition of recombinant full length human GST-tagged ITK expressed in baculovirus expression system
T3 sequence (Q08881 whole entry): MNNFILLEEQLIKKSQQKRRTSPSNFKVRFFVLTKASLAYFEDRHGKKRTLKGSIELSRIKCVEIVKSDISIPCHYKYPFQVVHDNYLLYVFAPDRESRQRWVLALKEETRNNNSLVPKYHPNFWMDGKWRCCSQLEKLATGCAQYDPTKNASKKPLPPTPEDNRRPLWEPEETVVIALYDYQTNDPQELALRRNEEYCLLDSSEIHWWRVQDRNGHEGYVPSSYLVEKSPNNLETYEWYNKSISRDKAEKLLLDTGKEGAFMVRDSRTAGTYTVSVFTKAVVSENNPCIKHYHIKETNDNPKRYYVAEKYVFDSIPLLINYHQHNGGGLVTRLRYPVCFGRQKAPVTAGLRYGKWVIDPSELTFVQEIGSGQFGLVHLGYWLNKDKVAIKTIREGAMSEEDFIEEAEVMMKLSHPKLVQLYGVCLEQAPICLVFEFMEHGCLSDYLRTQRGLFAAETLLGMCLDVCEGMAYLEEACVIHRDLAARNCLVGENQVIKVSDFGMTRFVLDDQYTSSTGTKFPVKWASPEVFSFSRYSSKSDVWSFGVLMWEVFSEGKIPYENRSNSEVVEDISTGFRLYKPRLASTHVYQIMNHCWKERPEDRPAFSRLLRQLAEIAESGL

[8] = target: MAP kinase p38 (Homo sapiens, UniProt O15264+Q15759+Q16539+P53778); assay: Inhibition of MAPK p38 (unknown origin)
[9] = target: Macrophage-stimulating protein receptor (Homo sapiens, UniProt Q04912); assay: Inhibition of recombinant human GST-tagged RON cytoplasmic domain expressed in baculovirus expression system
[10] = target: T4, Ephrin type-A receptor 3 (Homo sapiens, UniProt P29320); assay: Inhibition of recombinant human His-tagged EPHA3 cytoplasmic domain (569 to 976 residues) expressed in baculovirus expression system
T4 sequence (P29320 whole entry): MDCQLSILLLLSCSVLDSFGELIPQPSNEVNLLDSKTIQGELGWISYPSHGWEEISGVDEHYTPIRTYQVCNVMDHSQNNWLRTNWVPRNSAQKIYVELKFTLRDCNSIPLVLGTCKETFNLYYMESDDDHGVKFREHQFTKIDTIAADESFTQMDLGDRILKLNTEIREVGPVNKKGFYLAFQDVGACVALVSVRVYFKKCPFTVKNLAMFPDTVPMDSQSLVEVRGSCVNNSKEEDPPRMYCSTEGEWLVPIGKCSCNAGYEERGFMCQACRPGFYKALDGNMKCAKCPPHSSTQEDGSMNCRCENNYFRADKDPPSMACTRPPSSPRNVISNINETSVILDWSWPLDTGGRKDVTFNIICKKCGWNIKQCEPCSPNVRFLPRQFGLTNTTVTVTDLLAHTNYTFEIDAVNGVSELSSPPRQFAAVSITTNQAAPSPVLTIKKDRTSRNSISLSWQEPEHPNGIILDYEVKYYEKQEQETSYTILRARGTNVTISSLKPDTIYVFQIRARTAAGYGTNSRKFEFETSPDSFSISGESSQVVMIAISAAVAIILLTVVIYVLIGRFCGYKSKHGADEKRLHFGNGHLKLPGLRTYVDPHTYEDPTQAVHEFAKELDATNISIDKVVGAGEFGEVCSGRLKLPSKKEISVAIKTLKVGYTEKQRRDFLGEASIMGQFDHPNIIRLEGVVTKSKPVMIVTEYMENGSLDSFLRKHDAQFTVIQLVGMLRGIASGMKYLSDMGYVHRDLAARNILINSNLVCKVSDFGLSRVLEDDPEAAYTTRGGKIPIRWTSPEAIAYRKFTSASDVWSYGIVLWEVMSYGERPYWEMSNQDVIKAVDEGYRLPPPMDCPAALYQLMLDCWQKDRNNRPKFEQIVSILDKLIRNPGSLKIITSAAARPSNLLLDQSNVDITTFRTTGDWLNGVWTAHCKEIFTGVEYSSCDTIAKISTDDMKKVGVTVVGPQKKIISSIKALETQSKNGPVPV

[11] = target: Proto-oncogene tyrosine-protein kinase receptor Ret (Homo sapiens, UniProt P07949); assay: Inhibition of recombinant human GST-tagged RET cytoplasmic domain expressed in baculovirus expression system
Proto-oncogene tyrosine-protein kinase receptor Ret, sequence (P07949 whole entry, the tested form may be a part): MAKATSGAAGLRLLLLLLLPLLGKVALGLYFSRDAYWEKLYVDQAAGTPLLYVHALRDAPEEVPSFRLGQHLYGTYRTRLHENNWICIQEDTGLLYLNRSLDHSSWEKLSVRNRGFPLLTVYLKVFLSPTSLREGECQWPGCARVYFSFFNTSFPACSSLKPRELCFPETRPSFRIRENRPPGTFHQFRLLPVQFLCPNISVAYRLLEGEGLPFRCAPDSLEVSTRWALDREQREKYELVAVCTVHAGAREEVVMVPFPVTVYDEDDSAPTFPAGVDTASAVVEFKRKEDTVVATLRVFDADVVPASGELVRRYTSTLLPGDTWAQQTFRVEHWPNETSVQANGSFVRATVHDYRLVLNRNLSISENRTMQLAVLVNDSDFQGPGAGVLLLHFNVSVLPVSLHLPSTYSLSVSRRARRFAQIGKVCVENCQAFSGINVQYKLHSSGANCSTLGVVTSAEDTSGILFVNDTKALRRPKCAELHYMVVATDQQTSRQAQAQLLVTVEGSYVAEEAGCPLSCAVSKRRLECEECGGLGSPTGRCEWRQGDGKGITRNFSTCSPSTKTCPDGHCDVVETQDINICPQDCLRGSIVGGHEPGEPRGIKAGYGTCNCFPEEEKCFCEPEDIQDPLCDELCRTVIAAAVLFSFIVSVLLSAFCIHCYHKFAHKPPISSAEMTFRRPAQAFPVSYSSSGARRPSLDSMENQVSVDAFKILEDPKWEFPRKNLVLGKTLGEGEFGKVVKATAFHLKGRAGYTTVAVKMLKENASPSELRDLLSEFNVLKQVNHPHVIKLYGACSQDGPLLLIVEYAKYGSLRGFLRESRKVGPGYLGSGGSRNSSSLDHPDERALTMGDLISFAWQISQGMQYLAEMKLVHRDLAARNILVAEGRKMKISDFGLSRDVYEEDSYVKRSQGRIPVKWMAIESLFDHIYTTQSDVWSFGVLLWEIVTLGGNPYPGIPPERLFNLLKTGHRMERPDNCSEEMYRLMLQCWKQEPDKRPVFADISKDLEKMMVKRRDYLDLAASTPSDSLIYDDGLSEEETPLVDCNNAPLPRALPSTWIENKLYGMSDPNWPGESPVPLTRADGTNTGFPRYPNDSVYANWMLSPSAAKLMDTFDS

[12] = target: T5, Tyrosine-protein kinase Mer (Homo sapiens, UniProt Q12866); assay: Inhibition of recombinant human GST-tagged MER cytoplasmic domain expressed in baculovirus expression system
T5 sequence (Q12866 whole entry): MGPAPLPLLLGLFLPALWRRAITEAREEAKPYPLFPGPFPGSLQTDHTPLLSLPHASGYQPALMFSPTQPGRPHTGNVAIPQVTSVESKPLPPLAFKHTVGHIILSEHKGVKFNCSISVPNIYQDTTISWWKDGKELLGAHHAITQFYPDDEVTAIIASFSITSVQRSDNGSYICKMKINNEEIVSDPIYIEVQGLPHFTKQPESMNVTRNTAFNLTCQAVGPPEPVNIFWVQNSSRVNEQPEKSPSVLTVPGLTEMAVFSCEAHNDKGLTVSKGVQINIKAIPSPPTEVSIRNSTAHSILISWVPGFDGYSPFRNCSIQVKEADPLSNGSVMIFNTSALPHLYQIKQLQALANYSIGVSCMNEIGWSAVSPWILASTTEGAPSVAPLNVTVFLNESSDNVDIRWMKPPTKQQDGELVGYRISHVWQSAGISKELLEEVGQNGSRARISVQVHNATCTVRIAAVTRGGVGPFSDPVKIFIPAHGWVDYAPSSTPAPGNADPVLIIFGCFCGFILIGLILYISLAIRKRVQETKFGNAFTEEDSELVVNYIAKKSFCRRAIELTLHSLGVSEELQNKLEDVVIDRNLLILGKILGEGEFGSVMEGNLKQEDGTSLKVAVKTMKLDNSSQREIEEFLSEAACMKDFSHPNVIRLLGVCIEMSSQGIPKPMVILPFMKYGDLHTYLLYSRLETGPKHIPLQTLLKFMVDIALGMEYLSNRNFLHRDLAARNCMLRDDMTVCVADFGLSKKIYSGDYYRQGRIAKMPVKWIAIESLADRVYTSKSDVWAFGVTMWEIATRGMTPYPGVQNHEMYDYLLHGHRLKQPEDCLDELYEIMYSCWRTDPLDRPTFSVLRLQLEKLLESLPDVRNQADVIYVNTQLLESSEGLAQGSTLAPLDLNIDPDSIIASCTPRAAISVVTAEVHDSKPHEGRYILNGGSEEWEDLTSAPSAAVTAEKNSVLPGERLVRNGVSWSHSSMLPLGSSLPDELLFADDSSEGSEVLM

[13] = target: 5'-AMP-activated protein kinase catalytic subunit alpha-1 (Homo sapiens, UniProt Q13131); assay: Inhibition of PRKAA1 (unknown origin)
5'-AMP-activated protein kinase catalytic subunit alpha-1, sequence (Q13131 whole entry, the tested form may be a part): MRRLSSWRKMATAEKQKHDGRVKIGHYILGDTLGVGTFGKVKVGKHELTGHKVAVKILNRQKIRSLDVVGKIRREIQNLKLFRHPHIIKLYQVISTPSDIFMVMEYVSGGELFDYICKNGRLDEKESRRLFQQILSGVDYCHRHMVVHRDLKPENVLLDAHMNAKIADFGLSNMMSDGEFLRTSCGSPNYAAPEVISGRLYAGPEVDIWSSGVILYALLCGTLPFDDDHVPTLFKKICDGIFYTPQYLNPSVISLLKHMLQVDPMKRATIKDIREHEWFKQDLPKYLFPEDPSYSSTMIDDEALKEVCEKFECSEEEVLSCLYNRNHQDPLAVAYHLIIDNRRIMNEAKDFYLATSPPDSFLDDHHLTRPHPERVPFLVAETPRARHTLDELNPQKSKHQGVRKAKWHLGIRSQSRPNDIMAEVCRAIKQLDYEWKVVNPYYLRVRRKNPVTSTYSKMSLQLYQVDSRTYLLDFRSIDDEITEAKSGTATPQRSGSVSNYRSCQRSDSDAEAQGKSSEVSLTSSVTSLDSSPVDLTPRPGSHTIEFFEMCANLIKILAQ

[14] = target: Rho-associated protein kinase 1 (Homo sapiens, UniProt Q13464); assay: Inhibition of recombinant human GST-tagged ROCK1 catalytic domain expressed in baculovirus expression system
[15] = target: Glycogen synthase kinase-3 beta (Homo sapiens, UniProt P49841); assay: Inhibition of recombinant full length human His-tagged GSK3B expressed in baculovirus expression system
Glycogen synthase kinase-3 beta, sequence (P49841 whole entry): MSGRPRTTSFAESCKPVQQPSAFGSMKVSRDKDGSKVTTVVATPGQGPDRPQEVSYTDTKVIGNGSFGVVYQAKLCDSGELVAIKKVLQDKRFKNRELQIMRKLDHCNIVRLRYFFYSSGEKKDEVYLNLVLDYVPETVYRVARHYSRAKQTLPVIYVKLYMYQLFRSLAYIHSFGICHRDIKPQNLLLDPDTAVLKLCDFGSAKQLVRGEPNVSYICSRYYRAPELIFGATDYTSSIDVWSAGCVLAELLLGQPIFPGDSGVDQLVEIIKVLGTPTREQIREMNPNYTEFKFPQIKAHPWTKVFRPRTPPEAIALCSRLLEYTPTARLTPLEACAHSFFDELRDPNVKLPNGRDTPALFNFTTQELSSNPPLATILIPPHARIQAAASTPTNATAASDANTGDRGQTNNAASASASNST

SMILES	IC50 [1]	EC50 [2]	inhibition [3]	other results
COCCCn1cc(NC(=O)c2csc(-c3nncn3C(C)C)n2)cn1	–	65 nM	–	–
CCn1cc(NC(=O)c2csc(-c3nncn3C(C)C)n2)cn1	600 nM	600 nM	–	–
Cc1ccc(C(=O)Nc2cccc(-c3nncn3C(C)C)n2)c(F)c1	55 nM	–	–	–
CCn1cnc(NC(=O)C2CCC2)c1	–	–	< 10%	–
CC(C)(C)c1ccc(C(=O)Nc2cn3cc(-n4ccnc4)ccc3n2)cc1	–	–	–	IC50 [4]: > 20000 nM; IC50 [5]: 155 nM; IC50 [6]: > 20000 nM; IC50 [7]: 5500 nM; pIC50 [8]: < 4.7; IC50 [9]: > 20000 nM; IC50 [10]: > 20000 nM; IC50 [11]: 11500 nM; IC50 [12]: 6460 nM; IC50 [13]: 13800 nM; IC50 [14]: 4900 nM; IC50 [15]: 832 nM
CCn1cnc(NC(=O)c2ccoc2)c1	500000 nM	–	51%	–
COCCNc1ccnc(NC(=O)c2csc(-c3nncn3C(C)C)n2)c1	–	99 nM	–	–
COCCOc1ccnc(NC(=O)c2csc(-c3nncn3C(C)C)n2)c1	–	140 nM	–	–

Second part, led by results:

IC50 [1]	EC50 [2]	inhibition [3]	SMILES	other results
400 nM	–	–	CC(C)n1cnnc1-c1nc(C(=O)Nc2ccccn2)cs1	–
–	–	40%	CCn1cnc(NC(=O)c2ccccc2)c1	–
6000 nM	–	–	Cc1cc(F)c(C(=O)Nc2ccccn2)cc1-n1cnc(C2CC2)c1	–
100000 nM	–	75%	CCn1cnc(NC(=O)c2cscn2)c1	–
–	–	35%	CCn1cnc(NC(=O)c2ccco2)c1	–
–	130 nM	–	CC(C)n1cnnc1-c1nc(C(=O)Nc2cnn(C3COC3)c2)cs1	–
